Reference: patent US4188387A, “Amino-aryl 1,24-triazines useful in the treatment of diverse pain” (priority 1977, dated 1980)
“Also recorded” adds a separate entry of the source. Like-named read-outs stand apart in the source and are kept apart here.

Key:
Solubility = format: physicochemical; conditions: solvents named in the value
[1] = Ulcerogenic effect (criteria of PFEIFER and LEWALDOWFKI); format: in vivo; conditions: criteria of C. J. PFEIFER and L. G. LEWALDOWFKI
From the text: J. PFEIFER and L. G. LEWALDOWFKI (Arch. Int. Pharmacodyn. 1971, 190, 5-13).

[2] = Analgesic activity according to […] et al. (phenyl benzoquinone injection); format: in vivo; conditions: oral, 30 minutes before the injection of phenyl benzoquinone
Description: The compounds are administered orally 30 minutes before the injection of phenyl benzoquinone.

dental pulp = assay: Electric stimulation of dental pulp in rabbits (J. CHEYMOL et al.); format: in vivo
in vivo = conditions: mouse
Description: The toxicity study was carried out on the conventional mouse, weighing about 20 g.
The substances were administered orally and intraperitoneally.
The LD50 was calculated in accordance with the method of L. C. MILLER and M. L. TAINTER, Proc. Soc. exper.

[3] = ip, intraperitoneal, read-out: LD50 intraperitoneally

| SMILES | solubility (Solubility) | ulcerogenic effect [1] | ED50 [2] | analgesic activity in electric stimulation of dental pulp (dental pulp) | LD50 (in vivo; [3]) | LD50 (in vivo; oral, read-out: LD50 orally) |
| --- | --- | --- | --- | --- | --- | --- |
| CN(C)c1ccc(-c2n[nH]c(=O)nc2-c2ccc(N(C)C)cc2)cc1 | Soluble in aqueous dilute bases and acids; also recorded: poorly soluble in alcohol, benzene, methylene chloride, chloroform; also recorded: Insoluble in ether | – | – | – | – | – |
| CN(C)c1ccc(-c2nc(=O)n(C)nc2-c2ccc(N(C)C)cc2)cc1 [ST 729, 2-methyl 3-oxo 5,6-di(paradimethylamino-phenyl) as triazine] | insoluble in water, dilute bases, benzene, and ether; also recorded: Soluble in dilute acids, alcohol and methylene chloride | without ulcerogenic effect | 1 mg/kg | confirmed | – | – |
| CN(C)c1ccc(-c2nn(C)c(=O)nc2-c2ccc(Cl)cc2)cc1 [ST 761, 2-methyl 3-oxo 5(parachlorophenyl) 6(p-dimethylaminophenyl) as triazine] | Soluble in dilute acids, CH2 Cl2, and chloroform; also recorded: Insoluble in water, dilute bases, and ether | – | 4 mg/kg | – | 400 mg/kg | 1500 mg/kg |
| CN(C)c1ccc(-c2nn(C)c(=O)nc2-c2ccccc2Cl)cc1 [ST 746, 2-methyl 3-oxo 5(orthochlorophenyl) 6(paradimethylaminophenyl) as. triazine] | Insoluble in water, dilute bases and ether; also recorded: Soluble in methylene chloride, benzene, alcohol, chloroform and dilute acids | – | 100 mg/kg | – | 300 mg/kg | 1000 mg/kg |
| CN(C)c1ccc(-c2nc(=O)n(CCN3CCOCC3)nc2-c2ccc(N(C)C)cc2)cc1 [ST 767, 2 Ethyl morpholino 3-oxo 5,6 di(paradimethylaminophenyl) as. triazine] | Soluble in dilute aqueous acids, alcohol, methylene chloride, and chloroform; also recorded: Insoluble in water and dilute bases, benzene and ether | – | 1 to 50 mg/kg | – | – | > 1000 mg/kg |
| CCN(CC)c1ccc(-c2nc(=O)n(C)nc2-c2ccc(N(CC)CC)cc2)cc1 [ST 771, 2-methyl 3-oxo 5,6-di(paradiethylaminophenyl) as triazine] | Soluble in dilute aqueous acids, alcohol, methylene chloride, and chloroform; also recorded: Insoluble in water, dilute bases, benzene, ether | – | – | – | – | > 1000 mg/kg |
| CCN(CC)CCn1nc(-c2ccc(N(C)C)cc2)c(-c2ccc(N(C)C)cc2)nc1=O [ST 790, 2-diethylaminoethyl 3-oxo 5,6(paradimethylaminophenyl) as triazine] | Soluble in dilute aqueous acids, alcohol, benzene, methylene chloride, and chloroform; also recorded: Insoluble in bases, water, and ether | – | 1 to 50 mg/kg | – | – | > 1000 mg/kg |
| CN(C)c1ccc(-c2nc(=S)n(C)nc2-c2ccc(N(C)C)cc2)cc1 [ST 811, 2-methyl 3-thione 5,6-di(paradimethylaminophenyl)as triazine] | Soluble in aqueous dilute acids, alcohols, and methylene chloride; also recorded: Insoluble in water, aqueous bases, and ether | – | 1 to 50 mg/kg | – | – | > 1000 mg/kg |
| CN(C)c1ccc(-c2n[nH]c(=O)nc2-c2ccccc2Cl)cc1 [ST 745] | Insoluble in water, benzene, and ether; also recorded: Soluble in dilute bases and acids, ethanol, and methylene chloride | – | – | – | – | – |
| C=CCn1nc(-c2ccc(N(C)C)cc2)c(-c2ccc(N(C)C)cc2)nc1=O [ST 776, 2-allyl 3-oxo 5,6-di(paradimethylaminophenyl) as triazine] | Soluble in dilute aqueous acids, alcohol, benzene, methylene chloride, and chloroform; also recorded: Insoluble in water, bases, and ether | without ulcerogenic effect | 1 to 50 mg/kg | confirmed | – | > 1000 mg/kg |
| CN(C)CCCn1nc(-c2ccc(N(C)C)cc2)c(-c2ccc(N(C)C)cc2)nc1=O [ST 778] | Soluble in dilute aqueous acids, alcohol, benzene, methylene chloride, and chloroform; also recorded: Insoluble in water, dilute bases and ether | – | 1 to 50 mg/kg | – | – | > 1000 mg/kg |
| CCN(CC)c1ccc(-c2nnc(O)nc2-c2ccc(N(CC)CC)cc2)cc1 [ST 770, 3-oxo 5,6-di(paradiethylaminophenyl) as triazine] | Soluble in dilute acids and bases, alcohol, benzene, and methylene chloride | – | – | – | – | – |
| O=C(OCC(O)CO)c1ccccc1Nc1ccnc2cc(Cl)ccc12 (stereo not drawn) [Glaphenine, reference compound] | – | – | 36 mg/kg | – | – | – |
| CC(=O)Oc1ccccc1C(=O)O [Acetylsalicylic acid, reference compound] | – | – | 100 mg/kg | – | – | – |
